pIC50: −log10 of the molar value.
Experiments:
[1] = PHH natural infection assay, cytotoxicity (Cell Counting Kit-8); type: cell-based; settings: human
Method: (§1) Detailed procedures regarding primary human hepatocyte (PHH) HBV natural infection assay are described as below. One tube of frozen PHH (10 million cells) is thawed in 37° C. water bath and then transferred to 20 mL of PHH thawing medium (Sigma, InVitroGRO HT Medium, Cat. S03319) with gently mixing. The cells were then centrifuged at […] for 5 min, the supernatant was discarded and the tube was refilled with 25 mL of PHH plating medium (Sigma, InVitroGRO CP Medium, Cat. S03317). The tube was shaken very gently to re-suspend all cells, and then 50 μL of cells were transferred to each well 384-well collagen I coated plate with appropriate liquid handling equipment, e.g. Integra VIAFLO384 or Agilent Bravo. The cells were then cultured for 24 hours in a cell incubator. For HBV infection, after PHH attachment on the culture plate, the plating medium was removed and replenished with PHH culture medium containing HBV virus. The PHH culture medium was prepared with Dulbecco's Modified Eagle Medium (DMEM)/F12 (1:1 in volume ratio) containing 10% fetal bovine serum (Gibco, Cat. 10099141), 5 ng/mL human epidermal growth factor (Gibco, Cat.PHG0311L), 20 ng/mL dexamethasone (Sigma, Cat.D4902-100 mg), 250 ng/mL human recombinant insulin (Gibco, Cat.41400045) and 100 U/mL penicillin. HBV virus at 200 genome equivalent (GE) per cell with 4% PEG8000 (Sigma, Cat.P1458) containing culture medium were added to the PHH culture medium for infection. The cells were then cultured for 24 hours in cell incubator. Then the cell culture supernatant was removed. The HBV-infected PHH were cultured with sandwich culture method with PHH culture medium containing 1% DMSO and 0.25 mg/mL matrix gel for 72 hours. The supernatant was then refreshed with PHH culture medium containing different concentrations of testing compounds for two times with 72-hour interval. At the end of treatment, the supernatant was collected for viral markers measurements, including HBsAg, HBeAg, HBV DNA and cytotoxicity. HBsAg and HBeAg were detected using alphalisa method using their specific antibodies. For HBV DNA detection, HBV DNA Quantitative Fluorescence Diagnostic Kit (Sansure Biotech Inc.) was used following the manufacture's protocol. Cytotoxicity was determined using Cell Counting Kit-8 (CCK8, Dojindo Molecular Technologies, Inc.).

HBsAg = assay: PHH natural infection assay, HBsAg (alphalisa); type: cell-based, HBV; settings: Hepatitis B virus, read-out: HBsAg IC50
Method: as §1
(§2) The compounds of the present invention were tested for their capacity to inhibit HBsAg and HBeAg as described herein.

HBeAg = assay: PHH natural infection assay, HBeAg (alphalisa); type: cell-based, HBV; settings: Hepatitis B virus, read-out: HBeAg IC50
Method: as §1, §2

SMILES	CC50 at 144 h [1] [µM]	pIC50 (HBsAg)	pIC50 (HBeAg)
O=C(Nc1ccc(-c2nc3cccnc3o2)cc1)[C@H]1CCS(=O)(=O)C1 (single isomer, unassigned) [Example 86-a]	> 100	5.35	5.14
O=C(Nc1ccc(-c2nc3cccnc3o2)cc1)[C@@H]1CCS(=O)(=O)C1 (single isomer, unassigned) [Example 86-b]	> 100	5.71	5.73
O=C(Nc1ccc(-c2nc3cc(Cl)ccc3o2)cc1)[C@@H]1CCOC1 (single isomer, unassigned) [Example 87-a]	> 100	5.39	5.39
O=C(Nc1ccc(-c2nc3cc(Cl)ccc3o2)cc1)[C@H]1CCOC1 (single isomer, unassigned) [Example 87-b]	> 100	5.40	5.42
O=C(Nc1ccc(-c2nc3ccc(F)cc3o2)cc1)C1CCOC1 (stereo not drawn) [Example 1, N-[4-(6-fluoro-1,3-benzoxazol-2-yl)phenyl]tetrahydrofuran-3-carboxamide]	> 100	6.11	6.15
CC(O)C(=O)Nc1ccc(-c2nc3ccc(F)cc3o2)cc1 (stereo not drawn) [Example 2, N-[4-(6-fluoro-1,3-benzoxazol-2-yl)phenyl]-2-hydroxy-propanamide]	> 100	5.94	5.89
CC(C)(C)C(=O)Nc1ccc(-c2nc3ccc(F)cc3o2)cc1 [Example 3, N-[4-(6-fluoro-1,3-benzoxazol-2-yl)phenyl]-2,2-dimethyl-propanamide]	> 100	5.91	5.79
O=C(Nc1ccc(-c2nc3ccc(F)cc3o2)cc1)C1CCSCC1 [Example 4, N-[4-(6-fluoro-1,3-benzoxazol-2-yl)phenyl]tetrahydrothiopyran-4-carboxamide]	> 100	5.97	6.19
CC1(C(=O)Nc2ccc(-c3nc4ccc(F)cc4o3)cc2)CCCO1 (stereo not drawn) [Example 5, N-[4-(6-fluoro-1,3-benzoxazol-2-yl)phenyl]-2-methyl-tetrahydrofuran-2-carboxamide]	> 100	5.84	5.84
CC(C)(C)C(=O)Nc1ccc(-c2nc3cc(F)ccc3o2)cc1 [Example 6, N-[4-(5-fluoro-1,3-benzoxazol-2-yl)phenyl]-2,2-dimethyl-propanamide]	> 100	5.79	5.26
O=C(Nc1ccc(-c2nc3cc(F)ccc3o2)cc1)C1CCSCC1 [Example 7, N-[4-(5-fluoro-1,3-benzoxazol-2-yl)phenyl]tetrahydrothiopyran-4-carboxamide]	> 100	5.41	5.29
O=C(Nc1ccc(-c2nc3ccc(Cl)cc3o2)cc1)C1CCOC1 (stereo not drawn) [Example 8, N-[4-(6-chloro-1,3-benzoxazol-2-yl)phenyl]tetrahydrofuran-3-carboxamide]	> 100	6.04	6.09
CCCC(=O)Nc1ccc(-c2nc3ccc(Cl)cc3o2)cc1 [Example 9, N-[4-(6-chloro-1,3-benzoxazol-2-yl)phenyl]butanamide]	> 100	5.92	5.84
O=C(Nc1ccc(-c2nc3ccc(Cl)cc3o2)cc1)C1CCS(=O)(=O)C1 (stereo not drawn) [Example 10, N-[4-(6-chloro-1,3-benzoxazol-2-yl)phenyl]-1,1-dioxo-thiolane-3-carboxamide]	> 100	5.19	5.36
O=C(Nc1ccc(-c2nc3cccc(F)c3o2)cc1)c1ccoc1 [Example 11, N-[4-(7-fluoro-1,3-benzoxazol-2-yl)phenyl]furan-3-carboxamide]	> 100	5.69	5.25
CC1(C(=O)Nc2ccc(-c3nc4cccc(F)c4o3)cc2)COC1 [Example 12, N-[4-(7-fluoro-1,3-benzoxazol-2-yl)phenyl]-3-methyl-oxetane-3-carboxamide]	> 100	6.32	6.20

SMILES	CC50 at 144 h [1] [µM]	pIC50 (HBsAg)	pIC50 (HBeAg)
CC(C)(O)C(=O)Nc1ccc(-c2nc3cccc(F)c3o2)cc1 [Example 13, N-[4-(7-fluoro-1,3-benzoxazol-2-yl)phenyl]-2-hydroxy-2-methyl-propanamide]	> 100	6.59	6.72
O=C(Nc1ccc(-c2nc3cccc(F)c3o2)cc1)C12CC(C1)C2 [Example 14, N-[4-(7-fluoro-1,3-benzoxazol-2-yl)phenyl]bicyclo[1.1.1]pentane-1-carboxamide]	> 100	6.48	6.40
O=C(Nc1ccc(-c2nc3cccc(F)c3o2)cc1)C1CCOC1 (stereo not drawn) [Example 15, N-[4-(7-fluoro-1,3-benzoxazol-2-yl)phenyl]tetrahydrofuran-3-carboxamide]	> 100	6.00	5.97
O=C(Nc1ccc(-c2nc3cccc(F)c3o2)cc1)C12CC(F)(C1)C2 [Example 16, 3-fluoro-N-[4-(7-fluoro-1,3-benzoxazol-2-yl)phenyl]bicyclo[1.1.1]pentane-1-carboxamide]	> 100	6.32	6.36
O=C(Nc1ccc(-c2nc3cccc(F)c3o2)cc1)C1CCS(=O)(=O)C1 (stereo not drawn) [Example 17, N-[4-(7-fluoro-1,3-benzoxazol-2-yl)phenyl]-1,1-dioxo-thiolane-3-carboxamide]	> 100	6.27	6.20
O=C(Nc1ccc(-c2nc3cccc(F)c3o2)cc1)C1CCS(=O)(=O)CC1 [Example 18, N-[4-(7-fluoro-1,3-benzoxazol-2-yl)phenyl]-1,1-dioxo-thiane-4-carboxamide]	> 100	6.04	6.02
CC(C)(C)C(=O)Nc1ccc(-c2nc3cccc(F)c3o2)cc1 [Example 19, N-[4-(7-fluoro-1,3-benzoxazol-2-yl)phenyl]-2,2-dimethyl-propanamide]	> 100	6.17	6.01
O=C(Nc1ccc(-c2nc3cccc(F)c3o2)cc1)C1CC1 [Example 20, N-[4-(7-fluoro-1,3-benzoxazol-2-yl)phenyl]cyclopropanecarboxamide]	> 100	6.15	6.16
CC1(C(=O)Nc2ccc(-c3nc4cccc(F)c4o3)cc2)CCOC1 (stereo not drawn) [Example 21, N-[4-(7-fluoro-1,3-benzoxazol-2-yl)phenyl]-3-methyl-tetrahydrofuran-3-carboxamide]	> 100	6.14	6.07
O=C(Nc1ccc(-c2nc3cccc(F)c3o2)cc1)C1CC2CCC(C1)O2 (stereo not drawn) [Example 22, N-[4-(7-fluoro-1,3-benzoxazol-2-yl)phenyl]-8-oxabicyclo[3.2.1]octane-3-carboxamide]	> 100	6.02	5.91
O=C(Nc1ccc(-c2nc3cccc(F)c3o2)cc1)C1COCCO1 (stereo not drawn) [Example 23, N-[4-(7-fluoro-1,3-benzoxazol-2-yl)phenyl]-1,4-dioxane-2-carboxamide]	> 100	6.19	6.28
CC(O)C(=O)Nc1ccc(-c2nc3cccc(F)c3o2)cc1 (stereo not drawn) [Example 24, N-[4-(7-fluoro-1,3-benzoxazol-2-yl)phenyl]-2-hydroxy-propanamide]	> 100	6.03	5.74
O=C(Nc1ccc(-c2nc3cccc(F)c3o2)cc1)C1CCC1 [Example 25, N-[4-(7-fluoro-1,3-benzoxazol-2-yl)phenyl]cyclobutanecarboxamide]	> 100	6.02	6.14
CC(=O)OC1(C(=O)Nc2ccc(-c3nc4cccc(F)c4o3)cc2)CCOCC1 [Example 26, [4-[[4-(7-fluoro-1,3-benzoxazol-2-yl)phenyl]carbamoyl]tetrahydropyran-4-yl] acetate]	73.5	5.97	6.08
O=C(Nc1ccc(-c2nc3cccc(F)c3o2)cc1)C1CC1(F)F (stereo not drawn) [Example 27, 2,2-difluoro-N-[4-(7-fluoro-1,3-benzoxazol-2-yl)phenyl]cyclopropanecarboxamide]	> 100	5.96	6.15
O=C(Nc1ccc(-c2nc3cccc(F)c3o2)cc1)C1CCOCC1 [Example 28, N-[4-(7-fluoro-1,3-benzoxazol-2-yl)phenyl]tetrahydropyran-4-carboxamide]	> 100	6.02	6.00
